In the CheMixHub viscosity set:

Test: xn = mol fraction of the nth substance listed

NC=O + C1COCCO1
101 kPa
Details	viscosity [mPa·s]
298.15 K, x1 = 0.2556	1.492
298.15 K, x1 = 0.433	1.849
298.15 K, x1 = 0.5602	2.219
298.15 K, x1 = 0.6657	2.564
298.15 K, x1 = 0.7461	2.863
298.15 K, x1 = 0.8157	3.094
298.15 K, x1 = 0.8733	3.26
298.15 K, x1 = 0.9221	3.361
298.15 K, x1 = 0.9643	3.363
313.15 K, x1 = 0.2695	1.138
313.15 K, x1 = 0.4572	1.383
313.15 K, x1 = 0.58	1.621
313.15 K, x1 = 0.6792	1.846
313.15 K, x1 = 0.7583	2.039
313.15 K, x1 = 0.8242	2.193
313.15 K, x1 = 0.8775	2.294
313.15 K, x1 = 0.9226	2.338
313.15 K, x1 = 0.9638	2.362

OCCCO + C1COCCO1
viscosity [mPa·s], 100 kPa
Details	x2 = 0.0996	x2 = 0.2019	x2 = 0.2972	x2 = 0.3986	x2 = 0.4989	x2 = 0.5998	x2 = 0.6951	x2 = 0.8062	x2 = 0.9159
293.15 K	38.51	26.36	17.15	10.05	5.655	3.887	2.715	2.018	1.288
298.15 K	29.32	20.14	12.96	8.427	4.847	3.375	2.402	1.806	1.145
303.15 K	23.39	15.44	10.21	6.477	4.086	2.968	2.14	1.632	1.053

OCCCO + CC#N
viscosity [mPa·s], 100 kPa
Details	x2 = 0.1027	x2 = 0.2001	x2 = 0.3048	x2 = 0.4057	x2 = 0.5001	x2 = 0.6001	x2 = 0.6993	x2 = 0.8002	x2 = 0.8956
293.15 K	31.4	19.6	11.4	6.84	4.12	2.59	1.59	0.92	0.58
298.15 K	24.7	14.5	8.12	4.69	2.89	1.91	1.23	0.73	0.47
303.15 K	19.4	11.2	5.78	3.33	2.21	1.37	0.89	0.58	0.39

NC=O + CC(=O)N(C)C
viscosity [mPa·s], 101 kPa
Details	298.15 K	308.15 K	318.15 K
x2 = 0.035	3.217	2.532	2.077
x2 = 0.07	3.457	2.677	2.18
x2 = 0.111	3.656	2.847	2.286
x2 = 0.15	3.822	2.95	2.357
x2 = 0.2053	3.966	3.037	2.416
x2 = 0.2414	3.971	3.057	2.42
x2 = 0.3009	3.932	3.027	2.389
x2 = 0.3563	3.789	2.92	2.31
x2 = 0.4177	3.537	2.741	2.16
x2 = 0.458	3.338	2.594	2.076
x2 = 0.5011	3.094	2.43	1.953
x2 = 0.5474	2.826	2.235	1.81
x2 = 0.5912	–	2.028	–
x2 = 0.5972	2.53	–	1.65
x2 = 0.65	2.251	1.812	1.505
x2 = 0.7092	1.916	1.579	1.316
x2 = 0.75	1.72	1.441	1.205
x2 = 0.7948	1.54	1.289	1.096
x2 = 0.891	1.21	1.035	0.901

CN1CCC[C@H]1c1cccnc1 + CC(=O)O
viscosity [mPa·s], 101 kPa
Details	298.15 K	323.15 K
x1 = 0.1169	23.04	7.777
x1 = 0.1985	74.98	18.12
x1 = 0.2129	93.46	20.8
x1 = 0.2369	109.9	21.63
x1 = 0.2489	111.9	22.09
x1 = 0.2602	110.9	21.72
x1 = 0.2952	94.15	19.47
x1 = 0.3062	86.56	18.65
x1 = 0.3711	56.31	13.21
x1 = 0.47	24.1	7.709
x1 = 0.5888	15.2	5.208
x1 = 0.7306	8.751	3.61
x1 = 0.8435	7.072	3.085

NC=O + CC(=O)O
viscosity [mPa·s]
Details	298.15 K	303.15 K	308.15 K	313.15 K
101 kPa, x1 = 0.109	2.001	–	–	1.462
101 kPa, x1 = 0.2105	2.855	–	–	2.029
101 kPa, x1 = 0.3058	3.481	–	–	2.361
101 kPa, x1 = 0.4011	3.864	–	–	2.589
101 kPa, x1 = 0.5018	4.217	–	–	2.791
101 kPa, x1 = 0.5944	4.341	–	–	2.904
101 kPa, x1 = 0.7026	4.316	–	–	2.903
101 kPa, x1 = 0.7961	4.146	–	–	2.899
101 kPa, x1 = 0.9038	3.824	–	–	2.589
101.33 kPa, x1 = 0.0782	1.54	1.39	1.28	1.19
101.33 kPa, x1 = 0.1552	2.07	1.84	1.68	1.54
101.33 kPa, x1 = 0.2319	2.63	2.3	2.09	1.89
101.33 kPa, x1 = 0.3049	3.11	2.71	2.43	2.19
101.33 kPa, x1 = 0.3832	3.54	3.06	2.73	2.45
101.33 kPa, x1 = 0.4595	3.85	3.32	2.95	2.65
101.33 kPa, x1 = 0.5395	4.04	3.52	3.08	2.81
101.33 kPa, x1 = 0.6155	4.02	3.5	3.1	2.77
101.33 kPa, x1 = 0.6939	3.97	3.49	3.08	2.75
101.33 kPa, x1 = 0.7683	3.83	3.4	2.97	2.67
101.33 kPa, x1 = 0.8477	3.57	3.1	2.79	2.53
101.33 kPa, x1 = 0.9228	3.36	2.94	2.65	2.4

CC(=O)[O-].[Na+] + CC(=O)[O-].CC[n+]1ccn(C)c1
Details	viscosity [mPa·s]
298.15 K, 101 kPa, x1 = 0.0501	160.5

CN1CCC[C@H]1c1cccnc1 + CC(=O)c1ccccc1
viscosity [mPa·s], 101 kPa
Details	x1 = 0.1332	x1 = 0.2426	x1 = 0.3782	x1 = 0.4934	x1 = 0.613	x1 = 0.7431	x1 = 0.8402
298.15 K	1.872	2.198	2.537	2.947	3.238	3.627	3.736
323.15 K	1.162	1.288	1.453	1.551	1.743	1.912	1.962

NC=O + CC(C)(C)O
308 K, 101 kPa
Details	viscosity [mPa·s]
x1 = 0.1112	2.784
x1 = 0.2296	3.129
x1 = 0.3735	3.402
x1 = 0.5054	3.512
x1 = 0.6138	3.505
x1 = 0.7045	3.383
x1 = 0.7815	3.224
x1 = 0.8476	3.024
x1 = 0.9051	2.817

CN1CCC[C@H]1c1cccnc1 + CC(C)=O
viscosity [mPa·s], 101 kPa
Details	x1 = 0.1173	x1 = 0.2498	x1 = 0.378	x1 = 0.5005	x1 = 0.6228	x1 = 0.7485	x1 = 0.8439
298.15 K	0.4615	0.6975	0.9326	1.28	1.695	2.274	2.856
308.15 K	0.4184	0.6054	0.7994	1.075	1.397	1.818	2.248
323.15 K	0.3526	0.4988	0.6476	0.8411	1.065	1.364	1.619

OCCCO + CC(C)=O
viscosity [mPa·s], 100 kPa
Details	x2 = 0.1008	x2 = 0.1914	x2 = 0.3021	x2 = 0.4009	x2 = 0.51	x2 = 0.6004	x2 = 0.7	x2 = 0.7983	x2 = 0.9002
293.15 K	29.2	17.28	9.162	5.229	2.942	1.764	1.321	1.18	1.04
298.15 K	23.55	14.22	7.721	4.496	2.567	1.583	1.14	1.038	0.9174
303.15 K	19.21	11.82	6.554	3.894	2.257	1.428	1.031	0.9173	0.8122
308.15 K	15.86	9.922	5.609	3.395	1.997	1.293	0.9331	0.8138	0.722
313.15 K	13.22	8.416	4.85	2.979	1.78	1.175	0.8442	0.7248	0.6442
318.15 K	11.13	7.191	4.215	2.633	1.597	1.07	0.7632	0.6479	0.5768
323.15 K	9.46	6.198	3.679	2.343	1.433	0.9737	0.6946	0.5811	0.5183

CCOC(=O)CCC(=O)OCC + CC(C)CCO
viscosity [mPa·s], 100 kPa
Details	293.15 K	298.15 K	313.15 K
x1 = 0.5	–	2.025	–
x1 = 0.7999	2.455	–	1.635

CCOC(=O)CCC(=O)OCC + CC(C)CO
Details	viscosity [mPa·s]
303.15 K, 100 kPa, x1 = 0.0999	2.135

NC=O + CC(C)CO
308 K, 101 kPa
Details	viscosity [mPa·s]
x1 = 0.1092	2.344
x1 = 0.2053	2.444
x1 = 0.3677	2.574
x1 = 0.4992	2.682
x1 = 0.6079	2.757
x1 = 0.6993	2.788
x1 = 0.7772	2.782
x1 = 0.844	2.744
x1 = 0.9029	2.701

CCN(CC)CC(=O)Nc1c(C)cccc1C + CC(C)[C@@H]1CC[C@@H](C)C[C@H]1O
100 kPa, x2 = 0.667
Details	viscosity [mPa·s]
293.15 K	69.38
298.15 K	45.91
303.15 K	31.73
308.15 K	22.78
313.15 K	16.87
318.15 K	12.85
323.15 K	10.02

CN1CCC[C@H]1c1cccnc1 + CC(O)CO
100 kPa
Details	viscosity [mPa·s]
293.15 K, x1 = 0.1	59.35
293.15 K, x1 = 0.3	44.85
298.15 K, x1 = 0.6005	14.25
303.15 K, x1 = 0.2009	28.85
308.15 K, x1 = 0.6005	8.935
313.15 K, x1 = 0.7	5.605
313.15 K, x1 = 0.7983	4.425
318.15 K, x1 = 0.3	11.45
